{"source": "ChEMBL document CHEMBL2157938", "about": "“Use of structure based design to increase selectivity of pyridyl-cinnoline phosphodiesterase 10A (PDE10A) inhibitors against phosphodiesterase 3 (PDE3)” (Bioorg Med Chem Lett, 2012)", "key": {"[1]": {"test": "Inhibition of mouse PDE10A7 using fluorescein labeled CAMP as substrate incubated for 30 mins prior to substrate addition measured after 30 mins by fluorescence polarization assay"}, "[2]": {"test": "Selectivity ratio of IC50 for PDE3 to IC50 for mouse PDE10A7"}, "[3]": {"test": "Inhibition of PDE3"}, "[4]": {"test": "Clearance in rat liver microsomes", "type": "ADME, Microsome", "settings": "read-out: CLH"}, "[5]": {"test": "Clearance in rat at 1 mg/kg, iv and 5 mg/kg, po", "type": "ADME, organism-based", "settings": "in vivo"}, "[6]": {"test": "Oral bioavailability in rat at 5 mg/kg", "type": "ADME, organism-based", "settings": "in vivo"}, "[7]": {"test": "Half life in rat at 1 mg/kg, iv and 5 mg/kg, po", "type": "ADME, organism-based", "settings": "in vivo"}}, "note": "pIC50: −log10 of the molar value."}
{"smiles": "COc1cc2nncc(-c3cnc(N4CCC(C(C)(C)O)CC4)c(C)c3)c2cc1C", "values": [{"measurement": "pIC50", "setting": "[1]", "result": 7.59}, {"measurement": "Ratio IC50", "setting": "[2]", "result": 980}, {"measurement": "pIC50", "setting": "[3]", "result": 4.60}]}
{"smiles": "COc1cc2cncc(-c3cnc(N4CCC(C(C)(C)O)CC4)c(C)c3)c2cc1OC", "values": [{"measurement": "pIC50", "setting": "[1]", "result": 7.87}, {"measurement": "microsomal CLint", "setting": "[4]", "result": 69, "unit": "µL/min/mg"}]}
{"smiles": "COc1cc2nncc(-c3cnc(N4CCC(C(C)(C)O)CC4)c(C)c3)c2cc1OC1CC1", "values": [{"measurement": "clearance", "setting": "[5]", "result": 15.5, "unit": "mL/min/kg"}, {"measurement": "bioavailability", "setting": "[6]", "result": 32, "unit": "%"}, {"measurement": "pIC50", "setting": "[1]", "result": 8.39}, {"measurement": "half-life", "setting": "[7]", "result": 1.48, "unit": "h"}, {"measurement": "Ratio IC50", "setting": "[2]", "result": 4360}, {"measurement": "pIC50", "setting": "[3]", "result": 4.75}]}
{"smiles": "COc1cc2ccnc(-c3ccc(NC(C)C)nc3)c2cc1OC", "values": [{"measurement": "pIC50", "setting": "[1]", "result": 7.33}]}
{"smiles": "COc1cc2nncc(-c3cnc(N4CCC(C(C)(C)O)CC4)c(C)c3)c2cc1N(C)C", "values": [{"measurement": "pIC50", "setting": "[1]", "result": 5.35}, {"measurement": "pIC50", "setting": "[3]", "result": "< 5.00"}]}
{"smiles": "COc1cc2nncc(-c3ccc(NC(C)C)nc3)c2cc1OC", "values": [{"measurement": "pIC50", "setting": "[1]", "result": 8.12}]}
{"smiles": "CCOc1cc2c(-c3cnc(N4CCC(C(C)(C)O)CC4)c(C)c3)cnnc2cc1C", "values": [{"measurement": "pIC50", "setting": "[1]", "result": 7.39}, {"measurement": "Ratio IC50", "setting": "[2]", "result": "> 244"}, {"measurement": "pIC50", "setting": "[3]", "result": "< 5.00"}]}
{"smiles": "CCn1cc(-c2cnc(N3CCC(C(C)(C)O)CC3)c(C)c2)c2cc(OC)c(OC)cc2c1=O", "values": [{"measurement": "pIC50", "setting": "[1]", "result": 7.86}, {"measurement": "microsomal CLint", "setting": "[4]", "result": 50, "unit": "µL/min/mg"}]}
{"smiles": "COc1cc2nncc(-c3cnc(N4CCC(C(C)(C)O)CC4)c(C)c3)c2cc1OC", "values": [{"measurement": "bioavailability", "setting": "[6]", "result": 60, "unit": "%"}, {"measurement": "half-life", "setting": "[7]", "result": 1.54, "unit": "h"}, {"measurement": "Ratio IC50", "setting": "[2]", "result": 347}, {"measurement": "pIC50", "setting": "[3]", "result": 5.77}]}
{"smiles": "COc1cc2c(-c3cnc(N4CCC(C(C)(C)O)CC4)c(C)c3)cnnc2cc1OC(F)F", "values": [{"measurement": "pIC50", "setting": "[1]", "result": 7.16}, {"measurement": "Ratio IC50", "setting": "[2]", "result": 231}, {"measurement": "pIC50", "setting": "[3]", "result": 4.80}]}
{"smiles": "COc1cc2c(-c3cnc(N4CCC(C(C)(C)O)CC4)c(C)c3)cnnc2cc1OCC1CC1", "values": [{"measurement": "pIC50", "setting": "[1]", "result": 7.72}, {"measurement": "Ratio IC50", "setting": "[2]", "result": "> 523"}, {"measurement": "pIC50", "setting": "[3]", "result": "< 5.00"}]}
{"smiles": "COc1cc2nncc(-c3cnc(N4CCC(C(C)(C)O)CC4)c(C(F)F)c3)c2cc1OC", "values": [{"measurement": "bioavailability", "setting": "[6]", "result": 46, "unit": "%"}, {"measurement": "pIC50", "setting": "[1]", "result": 8.92}, {"measurement": "half-life", "setting": "[7]", "result": 2.08, "unit": "h"}, {"measurement": "Ratio IC50", "setting": "[2]", "result": 5520}, {"measurement": "pIC50", "setting": "[3]", "result": 5.18}]}
{"smiles": "COc1cc2nccc(-c3cnc(N4CCC(C(C)(C)O)CC4)c(C)c3)c2cc1OC", "values": [{"measurement": "pIC50", "setting": "[1]", "result": 7.92}, {"measurement": "microsomal CLint", "setting": "[4]", "result": 57, "unit": "µL/min/mg"}]}
{"smiles": "COc1cc2nncc(-c3cnc(N4CCC(C(C)(C)O)CC4)c(C4CC4)c3)c2cc1OC", "values": [{"measurement": "pIC50", "setting": "[1]", "result": 8.89}, {"measurement": "Ratio IC50", "setting": "[2]", "result": 2290}, {"measurement": "pIC50", "setting": "[3]", "result": 5.53}]}
{"smiles": "COc1cc2c(-c3cnc(N4CCC(C(C)(C)O)CC4)c(C)c3)cnnc2cc1F", "values": [{"measurement": "pIC50", "setting": "[1]", "result": 6.88}, {"measurement": "Ratio IC50", "setting": "[2]", "result": "> 75"}, {"measurement": "pIC50", "setting": "[3]", "result": "< 5.00"}]}
{"smiles": "COc1cc2nncc(-c3cnc(N4CCC(C(C)(C)O)CC4)c(Cl)c3)c2cc1OC", "values": [{"measurement": "pIC50", "setting": "[1]", "result": 8.20}, {"measurement": "Ratio IC50", "setting": "[2]", "result": 357}, {"measurement": "pIC50", "setting": "[3]", "result": 5.65}]}
{"smiles": "COc1cc2snc(-c3ccc(NC(C)C)nc3)c2cc1OC", "values": [{"measurement": "pIC50", "setting": "[1]", "result": 5.96}]}
